Test results: paper PMC7444661 (Journal of medicinal chemistry, 2019)

Tests used:
[1] = Metabolite identification in human hepatocytes; type: in vitro ADME; conditions: compound 23 incubated 4 hour with human hepatocytes
[2] = Metabolite identification in rat hepatocytes; type: in vitro ADME, male Wistar rats; conditions: compound 23 incubated 4 hour with rat hepatocytes
FMR1 knockout mice = conditions: cited from earlier work
PDE4D3-S54D = PDE4D3-S54D (Homo sapiens, UniProt Q08499, S190D/S715A/S717A); test: PDE4 coupled enzyme assay of cAMP hydrolysis, PDE4D3-S54D; type: biochemical; conditions: mean ± SD
PDE4D3-S54D, sequence (Q08499 1-673 isoform Q08499-2 S54D/S579A/S581A): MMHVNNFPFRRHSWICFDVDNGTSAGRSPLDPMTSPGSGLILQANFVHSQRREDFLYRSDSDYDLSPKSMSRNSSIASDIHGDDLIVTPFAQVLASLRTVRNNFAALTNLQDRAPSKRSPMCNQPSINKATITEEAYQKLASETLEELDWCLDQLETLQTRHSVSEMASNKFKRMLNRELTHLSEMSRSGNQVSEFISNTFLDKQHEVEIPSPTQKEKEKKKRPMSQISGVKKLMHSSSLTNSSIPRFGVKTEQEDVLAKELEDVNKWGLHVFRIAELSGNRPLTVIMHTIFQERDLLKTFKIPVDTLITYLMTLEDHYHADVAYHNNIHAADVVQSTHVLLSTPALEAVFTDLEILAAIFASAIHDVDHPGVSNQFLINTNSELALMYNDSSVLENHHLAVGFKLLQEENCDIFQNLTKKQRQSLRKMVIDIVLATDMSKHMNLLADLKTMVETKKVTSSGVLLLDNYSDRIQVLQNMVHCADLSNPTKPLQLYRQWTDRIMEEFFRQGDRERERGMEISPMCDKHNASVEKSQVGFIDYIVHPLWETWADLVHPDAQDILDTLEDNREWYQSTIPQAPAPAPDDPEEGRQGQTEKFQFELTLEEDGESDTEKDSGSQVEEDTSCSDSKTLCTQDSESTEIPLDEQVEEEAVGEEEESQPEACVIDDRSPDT

rats [3] = test: Dose range finding toxicology, rats; type: in vivo; conditions: oral dose of 100 mg/kg
cynomolgus monkeys = test: Emesis in cynomolgus monkeys; type: in vivo; conditions: oral doses up to 50 mg/kg
bacteria = test: Mutagenicity in bacteria
ferrets = test: Emesis in ferrets; type: in vivo; conditions: oral doses up to 30 mg/kg
PDE4D-cat = PDE4D-cat (Homo sapiens, UniProt Q08499, S715A/S717A); test: PDE4 coupled enzyme assay of cAMP hydrolysis, PDE4D-cat; type: biochemical; conditions: mean ± SD
PDE4D-cat, sequence (Q08499 380-743 S715A/S717A): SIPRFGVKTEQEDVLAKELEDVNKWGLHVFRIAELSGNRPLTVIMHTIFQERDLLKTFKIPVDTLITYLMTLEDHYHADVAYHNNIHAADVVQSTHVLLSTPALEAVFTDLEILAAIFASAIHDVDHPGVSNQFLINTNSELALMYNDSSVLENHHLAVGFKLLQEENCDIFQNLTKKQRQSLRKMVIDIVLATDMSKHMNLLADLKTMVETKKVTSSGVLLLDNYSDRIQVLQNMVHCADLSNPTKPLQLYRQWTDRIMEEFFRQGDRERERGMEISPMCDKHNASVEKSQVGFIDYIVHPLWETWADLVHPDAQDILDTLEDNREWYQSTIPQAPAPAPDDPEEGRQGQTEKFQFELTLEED

[4] = Liver microsome stability; type: in vitro ADME, dog, mouse, rat and monkey; conditions: human
rats [5] = test: Safety pharmacology, CNS and pulmonary, rats; type: in vivo; conditions: up to a maximum oral dose of 60 mg/kg
PDE1-11 = test: Counter assays against PDE1-11; type: biochemical; conditions: read-out: off target IC50 against PDE1-11; BPS Bioscience, all assays
mice [6] = test: Mouse novel object recognition after 24-hour delay; type: in vivo, Male ICR mice; conditions: mouse NOR
mice [7] = test: Anesthesia duration test; type: in vivo, Male ICR mice; conditions: mouse
PDE4D7-S129D [8] = biological target: T1, PDE4D7-S129D (Homo sapiens, UniProt Q08499, S190D/S715A/S717A); test: PDE4 coupled enzyme assay of cAMP hydrolysis, PDE4D7-S129D; type: biochemical; conditions: mean ± SD
T1 sequence (Q08499 1-748 isoform Q08499-11 S129D/S654A/S656A): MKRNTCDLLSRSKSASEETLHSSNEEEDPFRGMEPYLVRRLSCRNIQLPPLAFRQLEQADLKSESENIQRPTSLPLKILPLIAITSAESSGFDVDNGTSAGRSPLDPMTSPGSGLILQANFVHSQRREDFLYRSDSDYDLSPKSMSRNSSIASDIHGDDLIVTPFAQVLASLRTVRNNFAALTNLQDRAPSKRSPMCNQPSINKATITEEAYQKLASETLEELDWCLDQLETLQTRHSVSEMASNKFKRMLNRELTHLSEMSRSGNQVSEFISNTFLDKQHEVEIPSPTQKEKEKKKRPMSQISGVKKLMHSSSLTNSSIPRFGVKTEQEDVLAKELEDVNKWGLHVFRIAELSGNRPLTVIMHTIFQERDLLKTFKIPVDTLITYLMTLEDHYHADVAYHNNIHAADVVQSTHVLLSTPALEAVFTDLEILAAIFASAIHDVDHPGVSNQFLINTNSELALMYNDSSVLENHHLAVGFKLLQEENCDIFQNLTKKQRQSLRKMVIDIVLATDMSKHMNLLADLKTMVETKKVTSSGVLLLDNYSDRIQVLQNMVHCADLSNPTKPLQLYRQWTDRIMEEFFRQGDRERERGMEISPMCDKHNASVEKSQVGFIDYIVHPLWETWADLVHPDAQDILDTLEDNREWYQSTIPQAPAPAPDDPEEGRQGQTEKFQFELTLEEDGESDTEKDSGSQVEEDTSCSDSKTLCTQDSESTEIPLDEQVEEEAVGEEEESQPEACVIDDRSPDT

PDE4D2 = PDE4D2 (Homo sapiens, UniProt Q08499, S715A/S717A); test: PDE4 coupled enzyme assay of cAMP hydrolysis, PDE4D2; type: biochemical; conditions: mean ± SD
PDE4D2, sequence (Q08499 303-809 S715A/S717A): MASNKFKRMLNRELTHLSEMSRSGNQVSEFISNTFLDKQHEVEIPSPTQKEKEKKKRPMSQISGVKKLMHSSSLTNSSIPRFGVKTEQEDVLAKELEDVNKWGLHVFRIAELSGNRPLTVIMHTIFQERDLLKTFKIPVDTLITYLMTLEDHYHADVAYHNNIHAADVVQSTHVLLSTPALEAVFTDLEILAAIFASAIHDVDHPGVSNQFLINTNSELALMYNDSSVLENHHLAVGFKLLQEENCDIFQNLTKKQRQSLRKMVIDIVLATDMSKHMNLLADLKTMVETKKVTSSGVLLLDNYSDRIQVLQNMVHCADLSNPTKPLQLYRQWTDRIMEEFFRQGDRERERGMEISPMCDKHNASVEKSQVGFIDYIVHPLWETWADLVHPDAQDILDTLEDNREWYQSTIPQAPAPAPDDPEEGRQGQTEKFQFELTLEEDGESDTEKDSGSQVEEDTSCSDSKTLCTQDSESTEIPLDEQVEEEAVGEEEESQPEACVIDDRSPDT

PDE4D7-S129(wt) = PDE4D7-S129(wt) (Homo sapiens, UniProt Q08499, S715A/S717A); test: PDE4 coupled enzyme assay of cAMP hydrolysis, PDE4D7-S129; type: biochemical; conditions: mean ± SD
PDE4D7-S129(wt), sequence (Q08499 1-748 isoform Q08499-11 S654A/S656A): as the sequence (Q08499 1-748 isoform Q08499-11 S129D/S654A/S656A) above, with D129S counted along it

PDE4B1-S133D = PDE4B1-S133D (Homo sapiens, UniProt Q07343, S133D/S659A/S661A); test: PDE4 coupled enzyme assay of cAMP hydrolysis, PDE4B1-S133D; type: biochemical; conditions: mean ± SD
PDE4B1-S133D, sequence (Q07343 whole entry S133D/S659A/S661A): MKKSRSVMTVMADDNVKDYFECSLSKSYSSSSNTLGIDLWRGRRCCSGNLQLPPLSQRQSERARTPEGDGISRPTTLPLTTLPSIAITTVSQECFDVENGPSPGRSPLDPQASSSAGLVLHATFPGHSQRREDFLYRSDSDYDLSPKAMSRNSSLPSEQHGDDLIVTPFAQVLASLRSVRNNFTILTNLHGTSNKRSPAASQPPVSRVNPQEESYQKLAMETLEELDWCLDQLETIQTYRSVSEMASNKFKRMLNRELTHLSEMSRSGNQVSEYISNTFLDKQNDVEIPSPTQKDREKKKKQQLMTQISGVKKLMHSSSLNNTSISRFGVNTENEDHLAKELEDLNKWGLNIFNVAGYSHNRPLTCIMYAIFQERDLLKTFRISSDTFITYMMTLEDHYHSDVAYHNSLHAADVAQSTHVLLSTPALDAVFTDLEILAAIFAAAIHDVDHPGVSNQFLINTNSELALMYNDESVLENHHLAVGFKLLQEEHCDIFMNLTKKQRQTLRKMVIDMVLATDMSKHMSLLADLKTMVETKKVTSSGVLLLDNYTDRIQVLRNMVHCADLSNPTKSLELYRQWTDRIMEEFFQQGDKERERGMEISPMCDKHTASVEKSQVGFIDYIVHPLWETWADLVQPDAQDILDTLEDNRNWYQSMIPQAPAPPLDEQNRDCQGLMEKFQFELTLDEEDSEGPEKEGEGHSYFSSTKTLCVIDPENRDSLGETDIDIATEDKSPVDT

dog = test: Safety pharmacology, cardiovascular function, dog; type: in vivo; conditions: up to a maximum oral dose of 100 mg/kg
humanized PDE4D mice = conditions: cited from earlier work
rats and dogs = test: Toxicological studies of 28 and 90 days duration; type: in vivo
dogs = test: Dose range finding toxicology, dogs; type: in vivo; conditions: 100 mg/kg
PDE4D7-S129D [9] = biological target: T1, PDE4D7-S129D; test: PDE4D7-S129D inhibition in the presence of bovine serum albumin; conditions: bovine serum albumin at 1 mg/mL
Pharmacokinetics in mice = type: in vivo; conditions: oral

SMILES: CCc1cc(Cc2ccc(CC(=O)O)cc2)nc(-c2cccc(Cl)c2)n1 [Compound M6]
- percentage of metabolite present [1]: <1%
- percentage of metabolite present [2]: 29.1%

SMILES: O=C(O)Cc1ccc(Cc2cc(-c3cccc(Cl)c3)nc(C(F)(F)F)c2)cc1 [Compound 28, 2-(4-((2-(3-chlorophenyl)-6-(trifluoromethyl)pyridin-4-yl)methyl)phenyl)acetic acid]
- maturation of dendritic spines on layer 2/3 pyramidal cells (FMR1 knockout mice; FMR1 knockout mice): promotes
- behavior of adult FMR1 knockout mice (FMR1 knockout mice): normalizes
- Hill Slope PDE4D3-S54D dimer activated (PDE4D3-S54D): 0.68 ± 0.14
- dose range finding toxicology findings (rats [3]): inappetence and weight loss
- emesis (cynomolgus monkeys): nor did it cause emesis
- mutagenicity in bacteria (bacteria): not mutagenic
- emesis (ferrets): did not cause emesis
- Hill Slope PDE4D-cat monomer (PDE4D-cat): 1.2 ± 0.10
- remaining in liver microsomes ([4]; rat, mouse and dog liver microsomes, after 30 min incubation): 88-100%
- adverse CNS or pulmonary effects (rats [5]): no adverse CNS or pulmonary effects
- IC50 (PDE1-11): > 10 µM
- doses that significantly improved novel object discrimination (mice [6]; oral (PO), versus vehicle): above 0.3 mg/kg
- effect on anesthesia duration (mice [7]; doses of 3, 10 and 30 mg/kg PO): no significant effect
- change in anesthesia duration (mice [7]; doses up to 30 mg/kg): no change
- Hill Slope PDE4D7-S129D dimer activated (PDE4D7-S129D [8]): 0.55± 0.12
- Hill Slope PDE4D2 monomer (PDE4D2): 0.60± 0.16
- Hill Slope PDE4D7-S129(wt) dimer basal (PDE4D7-S129(wt)): 0.58 ± 0.11
- Hill Slope PDE4B1-S133D dimer activated (PDE4B1-S133D): 0.92 ± 0.21
- effect on cardiovascular function (dog): no effect
- potency in humanized PDE4D mice as compared to wild-type mice (humanized PDE4D mice): increased potency
- brain cAMP (humanized PDE4D mice; mice): increases
- late phase of hippocampal long-term potentiation (LTP) (humanized PDE4D mice; mice): augments
- phosphorylation of CREB (humanized PDE4D mice; mice): increases
- production of brain-derived neurotrophic factor (BDNF) in hippocampus (humanized PDE4D mice; mice): increases
- short and long term memory (humanized PDE4D mice; mice): improves
- vascular toxicity and microscopic findings (rats and dogs): did not reveal vascular toxicity nor any other microscopic findings
- dose range finding toxicology findings (dogs): emesis, tremor and weight loss

SMILES: CCc1cc(Cc2ccc(CC(N)=O)cc2)nc(-c2cccc(Cl)c2)n1 [Compound 23, 2-(4-((2-(3-Chlorophenyl)-6-ethylpyrimidin-4-yl)methyl)phenyl)acetamide]
- shift in IC50 for PDE4D7-S129D inhibition in the presence of BSA (PDE4D7-S129D [9]): no shift
- parent remaining in liver microsomes ([4]; dog, mouse, rat and monkey liver microsomes, at 30 min): 54-90%
- extended absorption (Pharmacokinetics in mice): 4 to 8 h

SMILES: COc1ccc(C2CNC(=O)C2)cc1OC1CCCC1 (stereo not drawn) [rolipram, reference compound]
- dose that significantly improved novel object discrimination (mice [6]; SC): 0.1 mg/kg

SMILES: CCc1cc(Cc2ccc(CC(=O)NCCO)cc2)nc(-c2cccc(Cl)c2)n1 [Compound 29, 2-(4-((2-(3-Chlorophenyl)-6-ethylpyrimidin-4-yl)methyl)phenyl)-N-(2-hydroxyethyl)acetamide]
- Hill Slope PDE4D7-S129D dimer activated (PDE4D7-S129D [8]): 0.66± 0.03
- Hill Slope PDE4D7-S129(wt) dimer basal (PDE4D7-S129(wt)): 0.50 ± 0.1
- Hill Slope PDE4B1-S133D dimer activated (PDE4B1-S133D): 0.37 ± 0.04
